Measurements: the NIST ThermoML archive (doi:10.1016/j.tca.2012.05.004)
± gives the expanded uncertainty stated by the source.

Conditions: 101.33 kPa, Liquid, Vibrating tube method

| Compound | mass density (288.15 K) | mass density (293.15 K) | mass density (298.15 K) | mass density (303.15 K) | mass density (308.15 K) | mass density (313.15 K) |
| --- | --- | --- | --- | --- | --- | --- |
| CCCCC(C)O (stereo unspecified) [2-hexanol] | 818.064 ± 0.3 kg/m3 | 814.174 ± 0.3 kg/m3 | 810.227 ± 0.31 kg/m3 | 806.225 ± 0.31 kg/m3 | 802.16 ± 0.31 kg/m3 | 798.04 ± 0.31 kg/m3 |
| CCC(C)O (stereo unspecified) [butan-2-ol] | 810.879 ± 0.3 kg/m3 | 806.837 ± 0.31 kg/m3 | 802.716 ± 0.31 kg/m3 | 798.513 ± 0.31 kg/m3 | 794.218 ± 0.31 kg/m3 | 789.832 ± 0.31 kg/m3 |
| CCCCCCC(C)O (stereo unspecified) [2-octanol] | 824.028 ± 0.3 kg/m3 | 820.313 ± 0.3 kg/m3 | 816.559 ± 0.3 kg/m3 | 812.768 ± 0.3 kg/m3 | 808.94 ± 0.31 kg/m3 | 805.079 ± 0.31 kg/m3 |
| CC(C)O [propan-2-ol] | 789.337 ± 0.31 kg/m3 | 785.198 ± 0.31 kg/m3 | 780.987 ± 0.31 kg/m3 | 776.718 ± 0.31 kg/m3 | 772.371 ± 0.31 kg/m3 | 767.935 ± 0.31 kg/m3 |
| CCCC(C)O (stereo unspecified) [pentan-2-ol] | 813.272 ± 0.3 kg/m3 | 809.305 ± 0.31 kg/m3 | 805.27 ± 0.31 kg/m3 | 801.157 ± 0.31 kg/m3 | 796.97 ± 0.31 kg/m3 | 792.702 ± 0.31 kg/m3 |
| ClCCCl [1,2-dichloroethane] | 1259.99 ± 0.58 kg/m3 | 1252.77 ± 0.57 kg/m3 | 1245.49 ± 0.56 kg/m3 | 1238.18 ± 0.56 kg/m3 | 1230.84 ± 0.55 kg/m3 | 1223.46 ± 0.54 kg/m3 |
